Measurements taken from US5061723A, “Non-teratogenic vitamin A preparation for women of child-bearing age” (Iowa State University Research Foundation, Inc., priority 1989, dated 1991).

Key:
[1] = test system: human fetus; conditions: oral, 0.5 to 2 mg/kg body weight per 24 hours; cited from earlier work
[2] = cited from earlier work
[3] = test system: HL-60 cells; conditions: cited from earlier work; for activity in the HL-60 systems assay: compared with retinoic acid and retinol
[4] = test system: pregnant rats (fetuses); experiment: Teratogenicity test in pregnant rats (single oral dose on day 8.5 of gestation; fetuses examined day 19-19.5); format: in vivo, rat
Method: All-trans retinoic acid glucuronide was tested for teratogenicity in pregnant rats.
The retinoic acid glucuronide dissolved in vegetable oil. Equivalent amount of all-trans retinoic acid was also dissolved in the vegetable oil. Groups of pregnant rats were dosed orally with either retinoid glucuronide or retinoic acid on day 8.5 of gestation. […] The rats were killed on day 19.5 of a 21 day gestational period, and the fetuses were examined for viability, growth, and developmental abnormalities.
Rats that became pregnant during the same night were selected for the study. The rats were divided into 3 groups. Rats in Group 1 received orally 55 mg of the all-trans retinoic acid glucuronide (equivalent to 35 mg of retinoic acid) or a very large dose of 108 mg of the glucuronide in peanut oil. Rats in Group 2 received orally 35 mg of all-trans retinoic acid in peanut oil. Rats in Group 3 received no retinoid and served as control. The rats were then allowed to grow normally and on day 19, they were killed and fetuses were examined.

[5] = Solubility in water; format: physicochemical; conditions: all-trans retinoyl β-glucuronide
[6] = test system: β-glucuronidase; experiment: Hydrolysis by β-glucuronidase (from E. coli); format: biochemical; conditions: phosphate buffer pH 6.8, 0.5-2 hrs
Method: An analytically pure sample of retinoyl β-glucuronide was obtained by HPLC of the above preparation on a Whatman ODS-3 column (M9, 50 cm) using methanol/water (7:3) containing 10 mM ammonium acetate at a flow rate of 3 ml/min. Retinoyl β-glucuronide (tR =49.7 min) separated from traces of isomers or anomers (tR =46.4 min). The eluate carrying retinoyl β-glucuronide was diluted with water and made just acidic with 0.1N HCl. The product was extracted with ethyl acetate. The extract was washed with water, dried over anhydrous sodium sulfate, and then evaporated to dryness. The residue was dissolved in a small volume of diethyl ether and all-trans retinoyl β-glucuronide was precipitated with hexane. The solid was separated and dried. All-trans retinoyl β-glucuronide:m.p. 142°-143° C. (darkens at 125° C.); UVmax 360 nm (E1cm =1065) in methanol and 365 nm in water. The ^1 H-NMR, IR and Mass spectra and C, H analysis results were consistent with the structure.

For `CC1=C(/C=C/C(C)=C/C=C/C(C)=C\C(=O)O)C(C)(C)CCC1` [isotretinoin, 13-cis form of retinoic acid], the “teratogenicity at typical clinical doses” value [1] is given as “highly teratogenic”.
For `CC1=C(/C=C/C(C)=C/C=C/C(C)=C/CO)C(C)(C)CCC1` [retinol], the water solubility [2] is given as “water-insoluble”.
In the case of `CC1=C(/C=C/C(C)=C/C=C/C(C)=C/COC2O[C@H](C(=O)O)[C@@H](O)[C@H](O)[C@H]2O)C(C)(C)CCC1` (some centres unmarked) [retinol glucuronide, reference compound], the “activity in the HL-60 systems assay” value [3] is listed as “activity similar to retinoic acid and retinol”.
For `CC1=C(/C=C/C(C)=C/C=C/C(C)=C/C(=O)O[C@@H]2O[C@H](C(=O)O)[C@@H](O)[C@H](O)[C@H]2O)C(C)(C)CCC1` [Retinoyl β-glucuronide, All-trans retinoyl β-glucuronide], the condition of pups ([4]; rat, in vivo, po) was “All the pups were normal and live”, the “teratogenicity, observation in words” value ([4]; rat, in vivo, po) was “did not show any sign of teratogenicity” and the solubility in water [5] was “soluble in water”. For the same molecule, the “product of incubation with β-glucuronidase” value [6] was “generated retinoic acid”, the “activity in the HL-60 systems assay” value [3] was “activity similar to retinoic acid and retinol” and the “cytotoxicity to HL-60 cells, less than all-trans retinoic acid” value ([3]; in vitro, vs all-trans retinoic acid, Gallup et al. and Zile et al.) was 50%.
In the case of `CC1=C(/C=C/C(C)=C/C=C/C(C)=C/C(=O)O)C(C)(C)CCC1` [Retinoic acid, all-trans retinoic acid, reference compound], the “outcome of pregnancy / embryos” value ([4]; same large doses of retinoic acid, oral) is listed as “did not carry the pregnancy to term--all the embryos died and were being resorbed” and the water solubility [2] is listed as “not water-soluble”.
